Results as given in US9556157B2, “Enhancer of zeste homolog 2 inhibitors” (GlaxoSmithKline Intellectual Property (No.2) Limited, priority 2013, dated 2017).

Legend:
[1] = target: T1, EZH2 within the PRC2 complex (Homo sapiens (Human), UniProt Q15910); assay: EZH2 methyltransferase SPA, mononucleosome substrate (Assay Protocol 1); type: biochemical; conditions: mononucleosomes from HeLa cells, 3H-SAM
Method: Compounds contained herein were evaluated for their ability to inhibit the methyltransferase activity of EZH2 within the PRC2 complex. Human PRC2 complex was prepared by co-expressing each of the 5 member proteins (FLAG-EZH2, EED, SUZ12, RbAp48, AEBP2) in Sf9 cells followed by co-purification. Enzyme activity was measured in a scintillation proximity assay (SPA) where a tritiated methyl group is transferred from 3H-SAM to a lysine residue on Histone H3 of a mononucleosome, purified from HeLa cells. Mononucleosomes were captured on SPA beads and the resulting signal is read on a ViewLux plate reader.
(§1) Part A. Compound Preparation
• 1. Prepare 10 mM stock of compounds from solid in 100% DMSO. • 2. Set up an 11-point serial dilution (1:3 dilution, top concentration 10 mM) in 100% DMSO for each test compound in a 384 well plate leaving columns 6 and 18 for DMSO controls. • 3. Dispense 100 nL of compound from the dilution plate into reaction plates (Grenier Bio-One, 384-well, Cat#784075). Part B. Reagent Preparation Prepare the following solutions: • 1. 50 mM Tris-HCl, pH 8: Per 1 L of base buffer, combine 1 M Tris-HCl, pH 8 (50 mL) and distilled water (950 mL). • 2. 1× Assay Buffer: Per 10 mL of 1× Assay Buffer, combine 50 mM Tris-HCl, pH 8 (9958 uL), 1 M MgCl2 (20 uL), 2 M DTT (20 uL), and 10% Tween-20 (2 uL) to provide a final concentration of 50 mM Tris-HCl, pH 8, 2 mM MgCl2, 4 mM DTT, 0.002% Tween-20. • 3. 2× Enzyme Solution: Per 10 mL of 2× Enzyme Solution, combine 1× Assay Buffer and PRC2 complex to provide a final enzyme concentration of 10 nM. • 4. SPA Bead Suspension: Per 1 mL of SPA Bead Suspension, combine PS-PEI coated LEADSeeker beads (40 mg) and H2O (1 mL) to provide a final concentration of 40 mg/mL. • 5. […] Read plates • 1. Read the assay plates on the Viewlux Plate Reader utilizing the 613 nm emission filter with a 300 s read time. […]
(§2) Percent inhibition was calculated relative to the DMSO control for each compound concentration and the resulting values were fit using standard IC50 fitting parameters within the ABASE data fitting software package.

[2] = target: T1, EZH2 within the PRC2 complex; assay: EZH2 methyltransferase SPA, biotinylated histone H3K27 peptide substrate (Assay Protocol 2); type: biochemical; conditions: 3H-SAM
Method: Compounds contained herein were evaluated for their ability to inhibit the methyltransferase activity of EZH2 within the PRC2 complex. Human PRC2 complex was prepared by co-expressing each of the 5 member proteins (FLAG-EZH2, EED, SUZ12, RbAp48, AEBP2) in Sf9 cells followed by co-purification. Enzyme activity was measured in a scintillation proximity assay (SPA) where a tritiated methyl group is transferred from 3H-SAM to a lysine residue on a biotinylated, unmethylated peptide substrate derived from histone H3. The peptides were captured on streptavidin-coated SPA beads and the resulting signal was read on a ViewLux plate reader.
as §1
• 4. Prepare 10 mM stock of compounds from solid in 100% DMSO. • 5. Set up an 11-point serial dilution (1:4 dilution, top concentration 10 mM) in 100% DMSO for each test compound in a 384 well plate leaving columns 6 and 18 for DMSO controls. • 6. Dispense 10 nL of compound from the dilution plate into reaction plates (Corning, 384-well polystyrene NBS, Cat#3673). Part B. Reagent Preparation Prepare the following solutions: • 7. 1× Base Buffer, 50 mM Tris-HCl, pH 8, 2 mM MgCl2: Per 1 L of base buffer, combine 1 M Tris-HCl, pH 8 (50 mL), 1 M MgCl2 (2 mL), and distilled water (948 mL). • 8. 1× Assay Buffer: Per 10 mL of 1× Assay Buffer, combine 1× Base Buffer (9.96 mL), 1 M DTT (40 uL), and 10% Tween-20 (1 uL) to provide a final concentration of 50 mM Tris-HCl, pH 8, 2 mM MgCl2, 4 mM DTT, 0.001% Tween-20. • 9. 2× Enzyme Solution: Per 10 mL of 2× Enzyme Solution, combine 1× Assay Buffer (9.99 mL) and 3.24 uM EZH2 5 member complex (6.17 uL) to provide a final enzyme concentration of 1 nM.
10. […] Read plates • 2. Read the assay plates on the Viewlux Plate Reader utilizing the 613 nm emission filter or clear filter (300 s exposure). […]
as §2

T1 sequence (Q15910 whole entry): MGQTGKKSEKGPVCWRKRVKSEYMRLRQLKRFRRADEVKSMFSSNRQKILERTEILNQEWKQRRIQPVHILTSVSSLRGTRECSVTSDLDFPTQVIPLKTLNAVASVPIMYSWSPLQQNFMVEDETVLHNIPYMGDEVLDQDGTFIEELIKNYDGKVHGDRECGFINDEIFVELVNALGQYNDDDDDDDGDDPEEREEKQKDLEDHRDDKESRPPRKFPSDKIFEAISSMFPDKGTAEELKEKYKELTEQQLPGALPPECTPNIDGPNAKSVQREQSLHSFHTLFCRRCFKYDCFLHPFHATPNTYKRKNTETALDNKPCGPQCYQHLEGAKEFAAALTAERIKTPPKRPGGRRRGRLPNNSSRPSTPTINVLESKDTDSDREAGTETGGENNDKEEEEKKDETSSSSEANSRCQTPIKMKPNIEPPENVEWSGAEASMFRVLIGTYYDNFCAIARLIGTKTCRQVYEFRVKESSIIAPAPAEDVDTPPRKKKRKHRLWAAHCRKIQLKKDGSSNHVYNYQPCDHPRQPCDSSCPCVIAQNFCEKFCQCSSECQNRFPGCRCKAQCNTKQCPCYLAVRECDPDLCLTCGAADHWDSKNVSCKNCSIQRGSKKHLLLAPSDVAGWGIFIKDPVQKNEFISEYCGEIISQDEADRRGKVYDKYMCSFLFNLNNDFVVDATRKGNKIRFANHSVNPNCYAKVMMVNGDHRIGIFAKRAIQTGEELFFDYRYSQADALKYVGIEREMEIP
T1 sequence (O75530 whole entry partner): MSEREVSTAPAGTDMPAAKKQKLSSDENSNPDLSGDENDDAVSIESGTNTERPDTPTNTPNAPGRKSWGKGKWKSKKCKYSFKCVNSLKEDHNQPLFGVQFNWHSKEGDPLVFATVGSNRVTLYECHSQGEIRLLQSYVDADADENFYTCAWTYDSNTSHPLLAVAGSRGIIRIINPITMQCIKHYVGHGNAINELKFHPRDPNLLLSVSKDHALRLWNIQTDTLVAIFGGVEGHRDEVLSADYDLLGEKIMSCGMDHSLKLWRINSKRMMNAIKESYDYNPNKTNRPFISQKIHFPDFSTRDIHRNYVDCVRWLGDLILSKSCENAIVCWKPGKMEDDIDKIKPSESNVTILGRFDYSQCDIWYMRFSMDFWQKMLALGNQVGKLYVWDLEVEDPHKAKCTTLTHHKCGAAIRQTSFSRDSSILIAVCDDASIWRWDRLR
T1 sequence (Q15022 whole entry partner): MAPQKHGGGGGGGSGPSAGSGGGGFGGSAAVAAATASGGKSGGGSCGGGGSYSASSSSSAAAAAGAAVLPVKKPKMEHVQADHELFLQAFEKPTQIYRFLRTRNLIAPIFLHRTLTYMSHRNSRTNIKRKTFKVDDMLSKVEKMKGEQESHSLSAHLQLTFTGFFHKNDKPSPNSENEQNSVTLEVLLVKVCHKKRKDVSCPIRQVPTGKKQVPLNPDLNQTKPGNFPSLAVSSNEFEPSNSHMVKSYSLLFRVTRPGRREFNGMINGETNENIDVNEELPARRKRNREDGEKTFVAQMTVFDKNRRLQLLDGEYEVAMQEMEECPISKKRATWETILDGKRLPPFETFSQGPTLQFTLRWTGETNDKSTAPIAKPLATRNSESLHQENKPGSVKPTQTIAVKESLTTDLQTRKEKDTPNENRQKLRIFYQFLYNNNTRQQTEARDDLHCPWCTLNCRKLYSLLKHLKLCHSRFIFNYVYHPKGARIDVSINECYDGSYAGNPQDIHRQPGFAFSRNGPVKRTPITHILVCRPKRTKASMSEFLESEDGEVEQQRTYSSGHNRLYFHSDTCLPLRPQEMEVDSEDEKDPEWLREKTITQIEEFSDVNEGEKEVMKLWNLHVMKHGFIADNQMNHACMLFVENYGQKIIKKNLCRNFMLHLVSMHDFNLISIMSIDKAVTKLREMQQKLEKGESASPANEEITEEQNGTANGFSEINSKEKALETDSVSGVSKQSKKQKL
T1 sequence (Q09028 whole entry partner): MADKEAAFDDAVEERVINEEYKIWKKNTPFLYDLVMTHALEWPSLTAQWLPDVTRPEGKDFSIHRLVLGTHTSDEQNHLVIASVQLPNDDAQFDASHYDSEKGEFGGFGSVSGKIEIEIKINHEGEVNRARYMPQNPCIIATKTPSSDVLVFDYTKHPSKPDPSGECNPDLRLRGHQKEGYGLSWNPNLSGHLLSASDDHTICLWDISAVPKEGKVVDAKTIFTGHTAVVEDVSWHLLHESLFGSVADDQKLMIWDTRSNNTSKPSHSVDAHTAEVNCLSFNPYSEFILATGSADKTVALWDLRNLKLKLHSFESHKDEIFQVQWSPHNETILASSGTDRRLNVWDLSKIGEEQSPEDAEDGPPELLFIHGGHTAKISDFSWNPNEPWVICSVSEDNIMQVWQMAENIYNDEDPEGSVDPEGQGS
T1 sequence (Q6ZN18 whole entry partner): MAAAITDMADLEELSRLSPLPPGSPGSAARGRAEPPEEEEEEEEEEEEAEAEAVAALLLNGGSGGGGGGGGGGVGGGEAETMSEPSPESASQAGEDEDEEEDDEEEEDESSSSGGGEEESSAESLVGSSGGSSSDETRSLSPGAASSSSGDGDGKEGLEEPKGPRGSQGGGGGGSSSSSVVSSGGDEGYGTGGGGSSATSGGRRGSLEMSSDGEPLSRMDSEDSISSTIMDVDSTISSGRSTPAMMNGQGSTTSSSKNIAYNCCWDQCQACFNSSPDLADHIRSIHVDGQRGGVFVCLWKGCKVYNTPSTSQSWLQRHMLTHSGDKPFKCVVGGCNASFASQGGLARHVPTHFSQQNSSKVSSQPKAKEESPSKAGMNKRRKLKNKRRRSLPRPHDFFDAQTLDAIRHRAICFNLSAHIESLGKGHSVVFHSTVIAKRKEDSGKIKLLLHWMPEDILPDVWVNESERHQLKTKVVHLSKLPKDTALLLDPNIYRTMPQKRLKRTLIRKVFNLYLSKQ

Row | SMILES | IC50 [1] [nM] | IC50 [2] [nM]
1 | CCN(c1scc(C(=O)NCc2c(C)[nH]c(C)cc2=O)c1C)C1CCOCC1 [Example 1, N-((2,6-dimethyl-4-oxo-1,4-dihydropyridin-3-yl)methyl)-5-(ethyl(tetrahydro-2H-pyran-4-yl)amino)-4-methylthiophene-3-carboxamide] | 316 | –
2 | CCN(c1scc(C(=O)NCc2c(C)[nH]c(C)cc2=O)c1C)[C@H]1CC[C@H](N(C)C)CC1 [Example 2, N-((2,6-dimethyl-4-oxo-1,4-dihydropyridin-3-yl)methyl)-5-(((trans)-4-(dimethylamino)cyclohexyl)(ethyl)amino)-4-methylthiophene-3-carboxamide] | 32 | 100
3 | CCN(c1scc(C(=O)NCc2c(C)[nH]c(C)c(N)c2=O)c1C)[C@H]1CC[C@H](N(C)C)CC1 [Example 3, N-((5-amino-2,6-dimethyl-4-oxo-1,4-dihydropyridin-3-yl)methyl)-5-(((trans)-4-(dimethylamino)cyclohexyl)(ethyl)amino)-4-methylthiophene-3-carboxamide] | 32 | 16
4 | CCN(c1sc(Br)c(C(=O)NCc2c(C)[nH]c(C)cc2=O)c1C)[C@H]1CC[C@H](N(C)C)CC1 [Example 4, 2-Bromo-N-((2,6-dimethyl-4-oxo-1,4-dihydropyridin-3-yl)methyl)-5-(((trans)-4-(dimethylamino)cyclohexyl)(ethyl)amino)-4-methylthiophene-3-carboxamide] | – | 160
